{
  "source": "ChEMBL document CHEMBL1142737",
  "about": "“Organometallic anticancer agents: cellular uptake and cytotoxicity studies on thiol derivatives of the antitumor agent molybdocene dichloride” (J Med Chem, 2005)",
  "key": {"[1]": {"assay": "Cytotoxicity against V79 chinese hamster lung cells was determined via MTT assay after 24 hr", "type": "cell-based, Cricetulus griseus"}, "[2]": {"assay": "Ability to inhibit the growth of human breast line MCF-7"}, "[3]": {"assay": "[…] lethal dose in CF1 mice bearing fluid Ehrlich Ascites tumor at a dose of 75-100 mg/kg", "type": "ADME, organism-based", "conditions": "mouse, in vivo"}, "[4]": {"assay": "Cytotoxicity against V79 chinese hamster lung cells was determined via MTT assay after 72 hr", "type": "cell-based, Cricetulus griseus"}, "[5]": {"assay": "Ability to inhibit the growth of ovarian cell line 2008", "type": "cell-based, Homo sapiens"}},
  "data": [
    {"sequence": "MOLYBDOCENE DICHLORIDE", "values": [
      {"measurement": "IC50", "setting": "[1]", "value": 820, "unit": "µM"},
      {"measurement": "IC50", "setting": "[2]", "value": 620, "unit": "µM"},
      {"measurement": "LD50", "setting": "[3]", "value": 175, "unit": "mg/kg"},
      {"measurement": "IC50", "setting": "[4]", "value": 350, "unit": "µM"},
      {"measurement": "IC50", "setting": "[5]", "value": 700, "unit": "µM"}
    ]}
  ]
}
